Consider eleven molecules from patent publication US10172358B2, “Thiopicolinamide compounds with fungicidal activity” (Dow AgroSciences LLC, priority 2016, dated 2019).

The subject of one data set is Zymoseptoria tritici. The data set can be described thus: Fungicidal activity: leaf blotch of wheat (SEPTTR), disease control on wheat seedlings. As to conditions: high volume application, 100 ppm. Format: in vivo, Zymoseptoria tritici on wheat plants (variety Yuma). A digest of the protocol:
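Wheat seedlings (cv. Yuma, first-leaf stage) sprayed to run-off with acetone/water solutions containing Triton X-100 (or EC formulations by track spray), inoculated with Z. tritici spores before or after treatment. Kept in a dew chamber, then greenhouse at 20 °C; percent control derived from disease severity relative to untreated plants.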

The next data set relates to Puccinia triticina. The data set can be described thus: Fungicidal activity: wheat brown rust (PUCCRT), disease control on wheat seedlings. It counts as in vivo, Puccinia triticina on wheat plants (variety Yuma). The note with it: high volume application, 100 ppm. In outline:
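Compounds in acetone diluted with nine volumes of water containing 110 ppm Triton X-100, sprayed to run-off on first-leaf Yuma wheat seedlings, inoculated with P. triticina spores before or after treatment. Plants held overnight in dark dew room at 22° C., 100% RH, then greenhouse at 24° C.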

[1] abbreviates: 24 h, 1 day protectant, read-out: SEPTTR 1DP disease control, HV activity at 100 ppm.
[2] abbreviates: 72 h, 3 day curative, read-out: SEPTTR 3DC disease control, HV activity at 100 ppm.
Setting [3] is: 24 h, 1 day protectant, read-out: PUCCRT 1DP disease control, HV activity at 100 ppm.
Setting [4] is: 72 h, 3 day curative, read-out: PUCCRT 3DC disease control, HV activity at 100 ppm.

Where two headings read alike, the source gives them in different places. Some results are limits rather than exact numbers.

The molecule `COc1ccnc(C(=S)N[C@@H](C)C(=O)O[C@@H](C)[C@@H](c2ccccc2)c2ccc(F)cc2C)c1O` [Compound 26] displayed a melting point of 152 to 159 °C. In the data set on Zymoseptoria tritici (setting [1]), the pest or weed control at 100 ppm was > 80%. In the data set with Zymoseptoria tritici (setting [2]), the pest or weed control at 100 ppm was > 80%. Further, in the data set with Puccinia triticina (setting [3]), the pest or weed control at 100 ppm was > 80%. Also, the pest or weed control at 100 ppm in the data set on Puccinia triticina (setting [4]) is ≤ 80%.
`COc1ccnc(C(=S)N[C@@H](C)C(=O)O[C@@H](C(C)C)[C@@H](C)Oc2ccccc2)c1O` [Compound 27] registered a melting point of 46 to 63 °C. The pest or weed control at 100 ppm in the data set with Zymoseptoria tritici (setting [2]) was ≤ 80%. Besides, the pest or weed control at 100 ppm in the data set with Puccinia triticina (setting [3]) was ≤ 80%.
On to `COc1cc(C)ccc1C(c1ccc(C)cc1OC)[C@H](C)OC(=O)[C@H](C)NC(=S)c1nccc(OC)c1O` [Compound 29], for which the melting point lay in the range of 60 to 72 °C. The pest or weed control at 100 ppm in the data set on Zymoseptoria tritici (setting [1]) was > 80%. Moreover, the pest or weed control at 100 ppm in the data set on Zymoseptoria tritici (setting [2]) is > 80%. Also, the pest or weed control at 100 ppm in the data set with Puccinia triticina (setting [3]) is > 80%. In addition, the pest or weed control at 100 ppm in the data set with Puccinia triticina (setting [4]) is > 80%.
Molecule `COc1ccnc(C(=S)N[C@@H](C)C(=O)O[C@@H](C)[C@H](Oc2ccccc2)c2ccc(F)cc2Cl)c1O` [Compound 30] displayed a melting point of 50 to 60 °C. Besides, the pest or weed control at 100 ppm in the data set on Zymoseptoria tritici (setting [1]) was > 80%. Further, in the data set on Zymoseptoria tritici (setting [2]), the pest or weed control at 100 ppm was > 80%. Moreover, the pest or weed control at 100 ppm in the data set with Puccinia triticina (setting [3]) was > 80%. Besides, the pest or weed control at 100 ppm in the data set with Puccinia triticina (setting [4]) is ≤ 80%.
In turn, `COc1ccnc(C(=S)N[C@@H](C)C(=O)O[C@@H](C)[C@@H](c2ccc(F)cc2)c2ccc(F)cc2C)c1O` [Compound 31] returned a melting point of 57 to 68 °C. Also, the pest or weed control at 100 ppm in the data set on Zymoseptoria tritici (setting [1]) is > 80%. Besides, the pest or weed control at 100 ppm in the data set with Zymoseptoria tritici (setting [2]) was > 80%. Also, the pest or weed control at 100 ppm in the data set on Puccinia triticina (setting [3]) is > 80%. The pest or weed control at 100 ppm in the data set on Puccinia triticina (setting [4]) was ≤ 80%.
`COc1ccnc(C(=S)N[C@@H](C)C(=O)O[C@@H](C)C(c2ccc(F)cc2F)c2ccc(F)cc2F)c1O` [Compound 32]: the melting point lay in the range of 50 to 61 °C. Besides, the pest or weed control at 100 ppm in the data set on Zymoseptoria tritici (setting [1]) is ≤ 80%. For the same molecule, the pest or weed control at 100 ppm in the data set with Zymoseptoria tritici (setting [2]) was > 80%. In addition, in the data set on Puccinia triticina (setting [3]), the pest or weed control at 100 ppm is ≤ 80%. In the data set with Puccinia triticina (setting [4]), the pest or weed control at 100 ppm is ≤ 80%.
For `COc1ccnc(C(=S)N[C@@H](C)C(=O)O[C@@H](C)[C@H](Oc2cccc(F)c2)C(C)C)c1O` [Compound 33], the melting point was in the range of 132 to 141 °C. For the same molecule, in the data set on Zymoseptoria tritici (setting [1]), the pest or weed control at 100 ppm is > 80%. For the same molecule, the pest or weed control at 100 ppm in the data set on Zymoseptoria tritici (setting [2]) is ≤ 80%. The pest or weed control at 100 ppm in the data set with Puccinia triticina (setting [3]) is > 80%. Moreover, the pest or weed control at 100 ppm in the data set on Puccinia triticina (setting [4]) is > 80%.
With `COc1ccnc(C(=S)N[C@@H](C)C(=O)O[C@@H](C)[C@H](Oc2ccccc2)c2ccc(F)cc2C)c1O` [Compound 35], the melting point was 45 to 57 °C. Also, in the data set on Zymoseptoria tritici (setting [1]), the pest or weed control at 100 ppm is > 80%. In addition, in the data set with Zymoseptoria tritici (setting [2]), the pest or weed control at 100 ppm was > 80%. Also, the pest or weed control at 100 ppm in the data set on Puccinia triticina (setting [3]) was > 80%. Besides, the pest or weed control at 100 ppm with Puccinia triticina (setting [4]) is ≤ 80%.
The molecule `COc1ccnc(C(=S)N[C@@H](C)C(=O)O[C@H](C(C)C)[C@H](C)Oc2ccc(F)cc2)c1O` [Compound 36] yielded a melting point of 141 to 148 °C. The pest or weed control at 100 ppm in the data set with Zymoseptoria tritici (setting [1]) was > 80%. Besides, the pest or weed control at 100 ppm in the data set with Zymoseptoria tritici (setting [2]) was ≤ 80%. Further, the pest or weed control at 100 ppm in the data set on Puccinia triticina (setting [3]) was > 80%. Further, in the data set on Puccinia triticina (setting [4]), the pest or weed control at 100 ppm was > 80%.
Molecule `CCC[C@@H](Oc1ccc(C)cc1)[C@H](C)OC(=O)[C@H](C)NC(=S)c1nccc(OC)c1O` [Compound 37] had a melting point of 125 to 133 °C. Besides, the pest or weed control at 100 ppm with Zymoseptoria tritici (setting [1]) is ≤ 80%. Further, the pest or weed control at 100 ppm in the data set on Puccinia triticina (setting [3]) is > 80%. For the same molecule, the pest or weed control at 100 ppm in the data set on Puccinia triticina (setting [4]) was > 80%.
`COc1ccnc(C(=S)N[C@@H](C)C(=O)O[C@@H](C)[C@H](Oc2ccc(Cl)cc2)C2CCCC2)c1O` [Compound 38]: the melting point lay within 49 to 57 °C. Further, the pest or weed control at 100 ppm in the data set on Zymoseptoria tritici (setting [1]) is > 80%. Besides, the pest or weed control at 100 ppm with Zymoseptoria tritici (setting [2]) was ≤ 80%. In addition, the pest or weed control at 100 ppm with Puccinia triticina (setting [3]) was > 80%. Further, the pest or weed control at 100 ppm in the data set on Puccinia triticina (setting [4]) is > 80%.

Broadly, the melting point is the temperature, or range, at which the solid turns liquid.
